According to patent publication US20240209456A1, “METHODS AND COMPOSITIONS RELATED TO CELL-CYCLE RNA's” (BETH ISRAEL DEACONESS MEDICAL CENTER, priority 2021, published 2024):
“Also recorded” adds a separate entry of the source.

Experiments:
Format in all cases: binding
[1] = biological target: TIP60 (Homo sapiens, UniProt Q92993); experiment: REMSA/EMSA with TIP60 protein; set-up: 5 μg of full length purified H2A.Z (Abcam) and TIP60 (SignalChem) proteins were incubated; purchased SignalChem; details: in vitro, 32P-labeled oligonucleotide, purified TIP60; RNA and DNA probes at same molar concentration
Sequence of TIP60 (Q92993 whole entry): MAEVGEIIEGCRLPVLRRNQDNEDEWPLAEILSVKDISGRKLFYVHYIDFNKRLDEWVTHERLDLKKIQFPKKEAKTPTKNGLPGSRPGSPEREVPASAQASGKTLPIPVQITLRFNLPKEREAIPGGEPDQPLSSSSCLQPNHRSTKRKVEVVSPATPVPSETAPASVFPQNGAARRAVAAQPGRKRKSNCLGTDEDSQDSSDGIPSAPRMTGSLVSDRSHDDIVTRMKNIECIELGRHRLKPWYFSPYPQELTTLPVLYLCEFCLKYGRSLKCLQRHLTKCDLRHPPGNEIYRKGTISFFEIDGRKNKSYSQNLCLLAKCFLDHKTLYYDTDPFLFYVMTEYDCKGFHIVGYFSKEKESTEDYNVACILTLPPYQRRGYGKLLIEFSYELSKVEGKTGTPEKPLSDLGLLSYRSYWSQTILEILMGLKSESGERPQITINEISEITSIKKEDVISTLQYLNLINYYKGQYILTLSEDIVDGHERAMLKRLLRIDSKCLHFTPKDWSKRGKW
Method: (§1) RNA oligonucleotides (15 pmol) were end-labeled with [γ-^32P] ATP (Perkin Elmer) and T4 polynucleotide kinase (New England Biolabs). Reactions were incubated at 37° C. for 1 h and then passed through G-25 spin columns (GE Healthcare) according to the manufacturer's instructions to remove unincorporated radioactivity. Labeled samples were gel-purified on 10% polyacrylamide gels. Binding reactions were carried out in 10 μL volumes in the following buffer: 5 mM Tris pH 7.4, 5 mM MgCl2, 1 mM DTT, 3% v/v glycerol, 100 mM NaCl. 5 μg of full length purified H2A.Z (Abcam) and TIP60 (SignalChem) proteins were incubated with 1.1 nM of ^32P-labeled ss RNAs. All reactions were assembled on ice and then incubated at room temperature for 30 min. Samples were loaded onto 6% native polyacrylamide gels (0.5×TBE) at 4° C. for 3 h at 140 V. Various concentrations (1 μM-10 mM) of H2A.Z and K7 acetylated H2A.Z peptides (AnaSpec) were incubated with a fixed amount of probe in 50 mM Tris-HCl pH 7.5, 100 mM NaCl, 0.4 mM EDTA, and 40 U/ml RNasin, 1 mM DTT, 50% glycerol in a final volume of 10 μL. Thereafter, 1 μl glutaraldehyde (0.2% final concentration) was added into the mixture and incubated at room temperature for 15 minutes. Samples were loaded onto 10% native polyacrylamide gels (0.5×TBE) at 4° C. for 3 h at 170 V. All gels were dried upon fixation with Methanol and Acetic Acid and exposed to X-ray film.

[2] = biological target: T1, H2A.Z (Homo sapiens, UniProt P0C0S5); experiment: RNA electrophoresis mobility shift assay (REMSA) with H2A.Z protein; details: in vitro, 32P-labeled oligonucleotide, full length purified H2A.Z
T1 construct: 5 μg of full length purified H2A.Z (Abcam) and TIP60 (SignalChem) proteins were incubated; purchased Abcam
T1 sequence (P0C0S5 whole entry): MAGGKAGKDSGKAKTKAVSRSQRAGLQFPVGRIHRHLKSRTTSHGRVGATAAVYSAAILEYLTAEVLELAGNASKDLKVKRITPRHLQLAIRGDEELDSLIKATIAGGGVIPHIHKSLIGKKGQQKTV
Method: as §1

[3] = biological target: T2, H2A.Z and K7 acetylated H2A.Z peptides (Homo sapiens, UniProt P0C0S5); experiment: REMSA with N-terminal H2A.Z peptides; details: in vitro, synthetic peptides
T2 construct: purchased AnaSpec
T2 sequence (P0C0S5 2-21): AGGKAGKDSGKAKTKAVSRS
Method: as §1

Substance | complex formation with TIP60 [1] | RNP complex formation with H2A.Z [2] | shift in migration with H2A.Z N-terminal peptides, unmodified and acetylated at lysine 7 [3]
DM2: DNA oligonucleotide duplex of the same primary sequence as UR2 (sense CTTTCCTCCACTCTCCCTGGGA; antisense TCCCAGGGAGAGTGGAGGAAAG; DNA, backbone and methylation of C not given here; further chemistry not fully specified) | weak complex formation | – | –
DM3: DNA oligonucleotide duplex of the same primary sequence as UR3 (sense GGCGTGGCGGTGGGCGCGCAGT; antisense ACTGCGCGCCCACCGCCACGCC; DNA, backbone and methylation of C not given here; further chemistry not fully specified) | weak complex formation | – | –
DM9A: double-stranded DNA oligonucleotide of the same primary sequence as RM9A (sense GCCCTTTCCCCAGCCTTAGCGA; antisense TCGCTAAGGCTGGGGAAAGGGC; DNA, backbone and methylation of C not given here; further chemistry not fully specified) | stronger TIP60 binding to the RNAs than to the DNA | – | –
Mut RM9A: mutated RM9A abolishing the predicted stem-loop structure, SEQ ID NO 86 (UUAUGUUAUUGUUUAUAUACGU; RNA, backbone not given here; further chemistry not fully specified) | did change the strength and the mobility of the RNA-TIP60 complexes | – | –
RM9A: RNA oligonucleotide of common binding motif 9 in c-MYC SPEARs, 5′-GGCGUGGCGGUGGGCGCGCAGU-3′, SEQ ID NO 85 (GGCGUGGCGGUGGGCGCGCAGU; RNA, backbone not given here; further chemistry not fully specified) | able to form RNPs; also recorded: stronger TIP60 binding to the RNAs than to the DNA | able to form RNPs | A shift in migration was observed
UR1: unrelated RNA oligonucleotide lacking the common binding motif, SEQ ID NO 87 (GCGCCCUGCAGCCUGGUACGCG; RNA, backbone not given here; further chemistry not fully specified) | did not form detectable RNPs complexes | did not form detectable RNPs complexes | –
UR2: unrelated RNA oligonucleotide lacking the common binding motif, SEQ ID NO 88 (CUUUCCUCCACUCUCCCUGGGA; RNA, backbone not given here; further chemistry not fully specified) | did not form detectable RNPs complexes | did not form detectable RNPs complexes | –
UR3: unrelated RNA oligonucleotide lacking the common binding motif, SEQ ID NO 89 (GCCCUUUCCCCAGCCUUAGCGA; RNA, backbone not given here; further chemistry not fully specified) | did not form detectable RNPs complexes | did not form detectable RNPs complexes | –
